Test results from patent US11744824B2, “2-amino-3-carbonyl imidazopyridine and pyrazolopyridine compounds” (1ST Biotherapeutics, Inc., priority 2020, dated 2023).

Key:
[1] = biological target: His-tagged recombinant human ABL1 (Homo sapiens (Human), UniProt P00519); test: c-Abl Kinase Assay (ADP-Glo); assay type: biochemical; conditions: in vitro kinase activity, ATP 25 μM
Experimental: ADP-Glo assay kit was purchased from Promega. Magnesium chloride (MgCl2), bovine serum albumin (BSA), ethylene glycol-bis(β-aminoethyl ether)-N,N,N′,N′-tetraacetic acid (EGTA), tween-20, 1,4-dithiothreitol (DTT) and dimethyl sulfoxide (DMSO) were purchased from Sigma-Aldrich. HEPES buffer was purchased from Gibco. ABL1 kinase and Abltide were purchased from Signalchem.
c-Abl kinase activity was measured by Promega's ADP-Glo™ Assay. In this assay, His-tagged recombinant human ABL1 (0.25 ng/μl) is incubated with 5 μL of compounds (0.5% DMSO), 5 μL of Abltide (0.01 μg/μl) and 5 μL of ATP (25 μM) in buffer (50 mM HEPES, 7.5; 10 mM MgCl2; 1 mM EGTA; 0.05% BSA; 0.01% Tween-20; 2 mM DTT). The assay was started by incubating the reaction mixture in a 96-well plate at 30° C. for 30 min. After the incubation, 25 μL ADP-Glo reagent was added and the reaction was incubated at room temperature for 40-min to stop the reaction and degrade residual ATP. The ADP product was then converted to ATP by adding 50 μL per well of detection reagent. Luminescence was detected after 30-min room temperature incubation with the Molecular device I3X plate reader. The IC50 values were calculated from a series of percent inhibition values determined at a range of inhibitor concentration using software routines as implemented in the GraphPad Prism 7 software and Sigma Plot 13.0.

[2] = system: IL-6 secretion in BV-2 mouse microglia cells; test: IL-6 Secretion in BV-2 Cell (L18-MDP stimulated, ELISA); assay type: cell-based; conditions: BV-2 cells, 10 μg/ml L18-MDP, 24 hr
Experimental: IL-6 Secretion in BV-2 Cell
BV-2 mouse microglia cells were kindly provided from Dr. Bae in Korea Institute of Science and Technology (KIST). BV-2 cells were thawed and suspended in Dulbecco's modified eagle medium (DMEM) supplemented with 10% fetal bovine serum (FBS) and 1% Penicillin/Streptomycin. Cells were seeded into 96 well plates at 2×10^4 cells/well and allowed to attach for 24 hr. On the day of the experiment, various concentration of FB compounds was treated, and cells were stimulated with 10 μg/ml L18-MDP. After 24 hr incubation, supernatant was collected for cytokine assay.
Absorbance at 450 nm was measured using SpectraMax i3X microplate reader (Molecular Device). Values of media-only wells were subtracted and % inhibition for each compound concentration relative to the DMSO/L18-MDP-treated controls (100%) was calculated. The IC50 values were calculated from a series of percent activity values using software as implemented in the GraphPad Prism 7 software and SigmaPlot 13.0.

[3] = biological target: GST-tagged recombinant human RIP2 (Homo sapiens (Human), UniProt O43353); test: RIP2 Kinase Assay (ADP-Glo); assay type: biochemical; conditions: in vitro kinase activity, ATP 25 μM
Sequence of GST-tagged recombinant human RIP2 (O43353 whole entry): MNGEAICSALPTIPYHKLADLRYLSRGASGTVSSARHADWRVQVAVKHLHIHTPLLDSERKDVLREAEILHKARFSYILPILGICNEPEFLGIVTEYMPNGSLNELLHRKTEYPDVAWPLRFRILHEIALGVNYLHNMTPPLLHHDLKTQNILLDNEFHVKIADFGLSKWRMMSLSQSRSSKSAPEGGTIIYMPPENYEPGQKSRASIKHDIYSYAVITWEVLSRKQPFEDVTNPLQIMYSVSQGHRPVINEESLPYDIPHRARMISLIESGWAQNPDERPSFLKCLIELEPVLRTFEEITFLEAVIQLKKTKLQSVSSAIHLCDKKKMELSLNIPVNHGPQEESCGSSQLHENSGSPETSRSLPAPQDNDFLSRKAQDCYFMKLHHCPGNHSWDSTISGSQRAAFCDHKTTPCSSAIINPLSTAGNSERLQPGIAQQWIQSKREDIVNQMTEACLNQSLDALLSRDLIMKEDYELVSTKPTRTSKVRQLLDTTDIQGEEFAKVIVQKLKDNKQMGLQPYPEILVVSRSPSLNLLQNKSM
Experimental: GST-tagged recombinant human RIP2 (25 ng) is incubated with 5 μL of compounds (0.5% DMSO), 5 μL of MBP (0.5 μg/μl) and 5 μL of ATP (25 μM) in buffer (40 mM Tris, 7.5; 20 mM MgCl2; 0.1 mg/ml BSA; 50 μM DTT). The assay was started by incubating the reaction mixture in a 96-well plate at 30° C. for 60 minutes. After the incubation, 25 μL ADP-Glo reagent was added, and the reaction was incubated at 30° C. for 40 minutes to stop the reaction and degrade residual ATP. The ADP product was then converted to ATP by adding 50 μL per well of detection reagent. Luminescence was detected after 30 minutes room temperature incubation with the Molecular device I3X plate reader. The IC50 values were calculated from a series of percent inhibition values determined at a range of inhibitor concentration using software routines as implemented in the GraphPad Prism 7 software and SigmaPlot 13.0.

Sequence of His-tagged recombinant human ABL1 (P00519 whole entry): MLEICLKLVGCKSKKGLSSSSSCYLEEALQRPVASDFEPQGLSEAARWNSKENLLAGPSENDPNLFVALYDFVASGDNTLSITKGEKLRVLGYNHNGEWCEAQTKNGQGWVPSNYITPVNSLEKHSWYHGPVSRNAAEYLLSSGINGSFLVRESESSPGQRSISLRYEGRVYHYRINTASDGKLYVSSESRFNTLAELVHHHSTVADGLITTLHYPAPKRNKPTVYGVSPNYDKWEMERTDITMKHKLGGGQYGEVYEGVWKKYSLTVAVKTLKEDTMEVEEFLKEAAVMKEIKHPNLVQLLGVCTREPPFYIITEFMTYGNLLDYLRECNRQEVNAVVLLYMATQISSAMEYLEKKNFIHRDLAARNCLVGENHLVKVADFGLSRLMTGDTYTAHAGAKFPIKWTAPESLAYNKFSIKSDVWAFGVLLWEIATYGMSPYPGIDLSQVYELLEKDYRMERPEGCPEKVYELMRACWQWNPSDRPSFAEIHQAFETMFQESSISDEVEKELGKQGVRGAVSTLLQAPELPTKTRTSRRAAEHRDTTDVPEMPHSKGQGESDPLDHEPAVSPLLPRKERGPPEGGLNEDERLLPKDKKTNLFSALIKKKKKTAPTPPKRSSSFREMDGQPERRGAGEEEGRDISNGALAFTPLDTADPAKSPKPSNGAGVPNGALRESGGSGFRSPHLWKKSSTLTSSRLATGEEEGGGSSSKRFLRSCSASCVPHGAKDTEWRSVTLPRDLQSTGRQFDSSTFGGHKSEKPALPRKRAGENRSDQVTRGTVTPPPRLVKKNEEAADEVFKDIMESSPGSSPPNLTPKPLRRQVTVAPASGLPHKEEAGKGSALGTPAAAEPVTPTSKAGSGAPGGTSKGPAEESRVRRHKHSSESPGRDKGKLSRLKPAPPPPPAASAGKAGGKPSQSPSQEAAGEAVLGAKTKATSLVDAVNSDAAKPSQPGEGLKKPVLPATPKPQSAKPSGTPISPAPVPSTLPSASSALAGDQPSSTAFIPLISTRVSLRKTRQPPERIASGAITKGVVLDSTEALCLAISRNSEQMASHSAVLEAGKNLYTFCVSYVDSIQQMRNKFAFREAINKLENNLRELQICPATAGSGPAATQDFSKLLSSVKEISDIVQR

| IC50 [1] | IC50 [2] | IC50 [3] | Structure (SMILES) |
| --- | --- | --- | --- |
| – | > 1000 nM | 1 to 100 nM | Cc1c(-c2ccc3nc(N)c(C(=O)C4CCNC4)n3c2)cnc2[nH]ccc12 (stereo not drawn) [Example 94] |
| – | > 1000 nM | 1 to 100 nM | Nc1nc2ccc(-c3cnc4[nH]ccc4c3Cl)cn2c1C(=O)C1CCNC1 (stereo not drawn) [Example 95] |
| – | 101 to 500 nM | 1 to 100 nM | Cc1ccc2[nH]ccc2c1-c1ccc2nc(N)c(C(=O)[C@@H]3C[C@@H]3F)n2c1 [Example 100] |
| – | 501 to 1000 nM | 1 to 100 nM | Nc1nc2ccc(-c3c(F)ccc4[nH]ccc34)cn2c1C(=O)[C@@H]1C[C@@H]1F [Example 101] |
| 1 to 100 nM | 101 to 500 nM | 1 to 100 nM | Nc1nc2ccc(-c3ccnc4[nH]ccc34)cn2c1C(=O)[C@@H]1C[C@@H]1F [Example 104] |
| 1 to 100 nM | 101 to 500 nM | 1 to 100 nM | Nc1nc2ccc(-c3c[nH]c4ccccc34)cn2c1C(=O)[C@@H]1C[C@@H]1F [Example 105] |
| – | 501 to 1000 nM | 1 to 100 nM | Nc1nc2ccc(-c3c[nH]c4ncccc34)cn2c1C(=O)[C@@H]1C[C@@H]1F [Example 110] |
| 1 to 100 nM | 101 to 500 nM | 1 to 100 nM | Nc1nc2ccc(-c3cc(F)cc4[nH]ccc34)cn2c1C(=O)[C@@H]1C[C@@H]1F [Example 113] |
| 1 to 100 nM | 101 to 500 nM | 1 to 100 nM | Cc1c(F)cc2[nH]ccc2c1-c1ccc2nc(N)c(C(=O)[C@@H]3C[C@@H]3F)n2c1 [Example 114] |
| – | 101 to 500 nM | 1 to 100 nM | Nc1nc2ccc(-c3ccnc4ccccc34)cn2c1C(=O)[C@@H]1C[C@@H]1F [Example 115] |
| – | 101 to 500 nM | 1 to 100 nM | Nc1nn2ccc(-c3cccc4[nH]ccc34)cc2c1C(=O)C1CC1 [Example 152] |
| – | 501 to 1000 nM | 1 to 100 nM | Cc1c(F)cc2[nH]ncc2c1-c1ccn2nc(N)c(C(=O)C3CC3)c2c1 [Example 153, (2-amino-5-(6-fluoro-5-methyl-1H-indazol-4-yl)pyrazolo[1,5-a]pyridin-3-yl)(cyclopropyl)methanone] |
| – | > 1000 nM | 1 to 100 nM | Cc1c(F)cccc1-c1ccn2nc(N)c(C(=O)C3CC3)c2c1 [Example 154] |

The next lines start with the molecule.

| Structure (SMILES) | IC50 [1] | IC50 [2] | IC50 [3] |
| --- | --- | --- | --- |
| Cc1c(F)cccc1-c1ccc2nc(N)c(C(=O)[C@@H]3C[C@@H]3F)n2c1 [Example 5] | 1 to 100 nM | 501 to 1000 nM | 1 to 100 nM |
| Cc1c(-c2ccc3nc(N)c(C(=O)[C@@H]4C[C@@H]4F)n3c2)cnc2[nH]ccc12 [Example 40] | 1 to 100 nM | 101 to 500 nM | 1 to 100 nM |
| Nc1nc2ccc(-c3ccc4[nH]ccc4c3)cn2c1C(=O)[C@@H]1C[C@@H]1F [Example 51] | 1 to 100 nM | 101 to 500 nM | 1 to 100 nM |
| Nc1nc2ccc(-c3cccc4[nH]ccc34)cn2c1C(=O)[C@@H]1C[C@@H]1F [Example 57] | 1 to 100 nM | 101 to 500 nM | 1 to 100 nM |
| Cc1c(F)cc2[nH]ncc2c1-c1ccc2nc(N)c(C(=O)[C@@H]3C[C@@H]3F)n2c1 [Example 60] | 101 to 500 nM | 1 to 100 nM | 1 to 100 nM |
| Nc1nc2ccc(-c3c(Cl)c(F)cc4[nH]ncc34)cn2c1C(=O)[C@@H]1C[C@@H]1F [Example 64] | – | 101 to 500 nM | 1 to 100 nM |
| CN(C)c1c(F)c(Cl)c(-c2ccc3nc(N)c(C(=O)[C@@H]4C[C@@H]4F)n3c2)c2cn[nH]c12 [Example 65] | – | > 1000 nM | > 1000 nM |
| Nc1nc2ccc(-c3ccc4[nH]ccc4c3)cn2c1C(=O)c1ccccn1 [Example 67] | – | 501 to 1000 nM | 1 to 100 nM |
| Nc1nc2ccc(-c3cnc4[nH]ccc4c3)cn2c1C(=O)c1ccccn1 [Example 68] | – | 101 to 500 nM | 1 to 100 nM |
| Nc1nc2ccc(-c3cnc4[nH]ccc4c3F)cn2c1C(=O)[C@@H]1C[C@@H]1F [Example 69] | – | 501 to 1000 nM | 1 to 100 nM |
| Nc1nc2ccc(-c3ccc4[nH]ccc4c3Cl)cn2c1C(=O)[C@@H]1C[C@@H]1F [Example 73] | – | 101 to 500 nM | 1 to 100 nM |
| Cc1c(-c2ccc3nc(N)c(C(=O)c4ccccn4)n3c2)cnc2[nH]ccc12 [Example 74] | – | 101 to 500 nM | 1 to 100 nM |
| Nc1nc2ccc(-c3cnc4[nH]ccc4c3Cl)cn2c1C(=O)c1ccccn1 [Example 75] | – | 501 to 1000 nM | 1 to 100 nM |
| Nc1nc2ccc(-c3cnc4[nH]ccc4c3)cn2c1C(=O)c1ncccn1 [Example 79] | – | > 1000 nM | 1 to 100 nM |
| Cc1c(-c2ccc3nc(N)c(C(=O)C4CNC4)n3c2)cnc2[nH]ccc12 [Example 82] | – | > 1000 nM | 1 to 100 nM |
| Nc1nc2ccc(-c3cnc4[nH]ccc4c3Cl)cn2c1C(=O)C1CNC1 [Example 83] | – | > 1000 nM | 1 to 100 nM |
| Cc1c(-c2ccc3nc(N)c(C(=O)c4ccncn4)n3c2)cnc2[nH]ccc12 [Example 84] | – | 501 to 1000 nM | 1 to 100 nM |
| Cc1c(-c2ccc3nc(N)c(C(=O)c4ncccn4)n3c2)cnc2[nH]ccc12 [Example 85] | – | 501 to 1000 nM | 1 to 100 nM |
| Nc1nc2ccc(-c3cnc4[nH]ccc4c3)cn2c1C(=O)C1CNC1 [Example 86] | – | > 1000 nM | 1 to 100 nM |
| Cc1c(-c2ccc3nc(N)c(C(=O)[C@@H]4C[C@@H]4F)n3c2)ccc2[nH]ccc12 [Example 89, (2-amino-6-(4-methyl-1H-indol-5-yl)imidazo[1,2-a]pyridin-3-yl)((1S,2S)-2-fluorocyclopropyl)methanone] | 1 to 100 nM | 101 to 500 nM | 1 to 100 nM |
| Cc1c(-c2ccc3nc(N)c(C(=O)[C@@H]4C[C@@H]4F)n3c2)ccc2[nH]ncc12 [Example 90] | – | 501 to 1000 nM | 1 to 100 nM |
